# Laboratory results taken from patent publication US7964647B2 (Mutual Pharmaceutical Company, Inc., priority 2007, dated 2011).
# System: patients with acute gout flare (acute gouty arthritic attack)
# Assay: Same acute gout flare study: safety (treatment emergent adverse events)
# Format: in vivo, human
# Source text: A sufficient number of patients are screened to enroll and randomize 300 patients (100 patients per treatment group) who meet the criteria of the American College of Rheumatology (ACR) for acute arthritis of gout. […] Secondary objectives of the study are to compare low-dose and standard-dose dosing regimens of colchicine with respect to pain, time to response and complete pain relief, interference with sleep, and signs and symptoms of inflammation and to determine the safety of colchicine when administered in the two different dosing regimens.
# Safety assessments will be made based on patient and Investigator inputs. Patients will be initially screened in the clinic for inclusion by review of medical history and concomitant medication use, physical examination, measurement of vital signs (oral temperature, sitting radial or brachial pulse rate, respiratory rate, and sitting blood pressure), body weight, and clinical laboratory testing (serum biochemistry, complete blood count, and urinalysis). After randomization, clinical laboratory tests, concomitant medication use, medical history and current complaints (AE) will be reviewed every 3 months until an acute gout flare occurs in order to ensure continued eligibility. Compliance with key inclusion/exclusion criteria (based on intervening medical history and concomitant medication use) will be re confirmed by the Gout Flare Call Center prior to authorizing the start of study drug. Following the start of study drug, patients will record any severe gastrointestinal AEs on their diaries and these will be recorded in the Case Report Form (CRF) at each clinic visit. Full physical examinations and clinical laboratory testing will be conducted at the final clinic visit (Visit 4 or Visit 5). Vital signs and body weight will be measured at each Post Flare visit (Visit 3 and 4 or 5). For those patients in whom there is an unresolved AE or clinically significant treatment emergent laboratory abnormality, there will be one additional follow up visit 14 days post flare onset (Visit 6).
# Safety analysis will be performed by coding adverse events using a standardized medical dictionary and the incidence summarized by treatment group; tabulations will be prepared of all AEs as well as by relationship and by severity. Adverse events resulting in termination and events meeting regulatory criteria for seriousness will also be tabulated separately. Descriptive statistics (mean, median, standard deviation, and range) of clinical laboratory testing results and vital sign measurements will be generated for each treatment group and change from the most recent value prior to onset of the acute gout flare calculated; no inferential testing will be performed. Treatment emergent abnormalities on physical examination will be tabulated and listed by treatment group. By patient listings of all safety data and concomitant medication use will be generated.
compound,measurement,setting,value
"COc1cc2c(c(OC)c1OC)-c1ccc(OC)c(=O)cc1[C@@H](NC(C)=O)CC2 [Colchicine, (−)-N-[(7S,12aS)-1,2,3,10-tetramethoxy-9-oxo-5,6,7,9-tetrahydrobenzo[a]heptalen-7-yl]-acetamide]",Patients with severe TEAE: Gout,"All colchicine, N = 126",0 n
same,Patients with severe TEAE: Metabolism and Nutrition Disorders,"All colchicine, N = 126",0 n
same,Number (%) of patients with a TEAE discontinuing study,"High dose 4.8 mg, N = 52",0 n (%)
same,Number (%) of patients with a treatment emergent SAE,"High dose 4.8 mg, N = 52",0 n (%)
same,Number (%) of patients with at least one TEAE,"High dose 4.8 mg, N = 52",40 (76.9) n (%)
same,Number (%) of patients with at least one mild TEAE,"High dose 4.8 mg, N = 52",15 (28.8) n (%)
same,Number (%) of patients with at least one moderate TEAE,"High dose 4.8 mg, N = 52",15 (28.8) n (%)
same,Number (%) of patients with at least one severe TEAE,"High dose 4.8 mg, N = 52",10 (19.2) n (%)
same,Total number of TEAEs,"High dose 4.8 mg, N = 52, safety population",85
same,Patients with at least one drug-related TEAE,"High dose, N = 52",38 (73.1) n (%)
same,Patients with drug-related TEAE: Diarrhea,"High dose, N = 52",38 (73.1) n (%)
same,Patients with drug-related TEAE: Gastro-intestinal Disorders,"High dose, N = 52",38 (73.1) n (%)
same,Patients with drug-related TEAE: Nausea,"High dose, N = 52",7 (13.5) n (%)
same,Patients with drug-related TEAE: Vomiting,"High dose, N = 52",8 (15.4) n (%)
same,Patients with severe TEAE: Diarrhea,"High dose, N = 52",19.2%
same,Patients with severe TEAE: Gout,"High dose, N = 52",0 n
same,Patients with severe TEAE: Metabolism and Nutrition Disorders,"High dose, N = 52",0 n
same,Number (%) of patients with a TEAE discontinuing study,"Low dose 1.8 mg, N = 74",0 n (%)
same,Number (%) of patients with a treatment emergent SAE,"Low dose 1.8 mg, N = 74",0 n (%)
same,Number (%) of patients with at least one TEAE,"Low dose 1.8 mg, N = 74",27 (36.5) n (%)
same,Number (%) of patients with at least one mild TEAE,"Low dose 1.8 mg, N = 74",19 (25.7) n (%)
same,Number (%) of patients with at least one moderate TEAE,"Low dose 1.8 mg, N = 74",8 (10.8) n (%)
same,Number (%) of patients with at least one severe TEAE,"Low dose 1.8 mg, N = 74",0 n (%)
same,"Number (%) of patients with at least one treatment-emergent gastrointestinal AE, captured on Adverse Event CRF, All","Low dose 1.8 mg, N = 74",19 (25.7) Number (%)
same,"Number (%) of patients with at least one treatment-emergent gastrointestinal AE, captured on Adverse Event CRF, Severe","Low dose 1.8 mg, N = 74",0 Number (%)
same,"Number (%) of patients with at least one treatment-emergent gastrointestinal AE, captured on Patient Diary or Adverse Event CRF, All","Low dose 1.8 mg, N = 74",33 (44.6) Number (%)
same,"Number (%) of patients with at least one treatment-emergent gastrointestinal AE, captured on Patient Diary or Adverse Event CRF, Severe","Low dose 1.8 mg, N = 74",3 (4.1) Number (%)
same,"Number (%) of patients with at least one treatment-emergent gastrointestinal AE, captured on Patient Diary, Severe","Low dose 1.8 mg, N = 74",3 (4.1) Number (%)
same,Total number of TEAEs,"Low dose 1.8 mg, N = 74, safety population",34
same,Patients with at least one severe TEAE (any),"Low dose, N = 74",0 n
same,Patients with drug-related TEAE: Diarrhea,"Low dose, N = 74",21.6%
same,Patients with drug-related TEAE: Gastro-intestinal Disorders,"Low dose, N = 74",24.3%
same,Patients with drug-related TEAE: Vomiting,"Low dose, N = 74",0 n
same,Patients with severe TEAE: Diarrhea,"Low dose, N = 74",0 n
same,Patients with severe TEAE: Gastrointestinal Disorders,"Low dose, N = 74",0 n
same,Patients with severe TEAE: Gout,"Low dose, N = 74",0 n
same,Patients with severe TEAE: Melaena,"Low dose, N = 74",0 n
same,Patients with severe TEAE: Metabolism and Nutrition Disorders,"Low dose, N = 74",0 n
same,Patients with severe TEAE: Musculoskeletal and Connective Tissue Disorders,"Low dose, N = 74",0 n
same,Patients with severe TEAE: Nausea,"Low dose, N = 74",0 n
same,Patients with severe TEAE: Pain in Extremity,"Low dose, N = 74",0 n
same,"Number (%) of patients with at least one treatment-emergent gastrointestinal AE, captured on Adverse Event CRF, All","Standard dose 4.8 mg, N = 52",40 (76.9)^2 Number (%)
same,"Number (%) of patients with at least one treatment-emergent gastrointestinal AE, captured on Adverse Event CRF, Severe","Standard dose 4.8 mg, N = 52",10 (19.2) Number (%)
same,"Number (%) of patients with at least one treatment-emergent gastrointestinal AE, captured on Patient Diary or Adverse Event CRF, All","Standard dose 4.8 mg, N = 52",49 (94.2)^2 Number (%)
same,"Number (%) of patients with at least one treatment-emergent gastrointestinal AE, captured on Patient Diary or Adverse Event CRF, Severe","Standard dose 4.8 mg, N = 52",18 (34.6) Number (%)
same,"Number (%) of patients with at least one treatment-emergent gastrointestinal AE, captured on Patient Diary, All","Standard dose 4.8 mg, N = 52",48 (92.3)^2 Number (%)
same,"Number (%) of patients with at least one treatment-emergent gastrointestinal AE, captured on Patient Diary, Severe","Standard dose 4.8 mg, N = 52",13 (25.0) Number (%)
same,Proportion of patients with vomiting,high-dose 4.8 mg,15.4%
same,Occurrence of severe diarrhea,low-dose group 1.8 mg,not occurring
same,Occurrence of vomiting,low-dose group 1.8 mg,not occurring
same,Proportion of patients with diarrhea,standard dose 4.8 mg,73.1%
same,Proportion of patients with gastrointestinal side effects,standard dose 4.8 mg,73.1%
